Measurements published in paper PMC6081437, “The potency of the broad spectrum bacteriocin, bactofencin A, against staphylococci is highly dependent on primary structure, N-terminal charge and disulphide formation” (Scientific Reports, 2018).
Bridge positions count the residues as written; N and C are the ends. Square brackets hold non-standard residues; d marks the D form. Ends that are not written are not given here. Peptide text beside a SMILES is read from it.

Test system: S. aureus DPC5246
Format: cell-based, Staphylococcus aureus
Settings: for Activity (Minimum Inhibitory Concentration, MIC): DPC5246, pH 6.8; for fold reduction in activity compared with bactofencin A (wild type): S. aureus DPC5246, agar well diffusion MIC
Experimental: Peptides were resuspended at 1000 µM in 50 mM sodium phosphate buffer pH 6.8 and checked for purity by MALDI-TOF-MS. Peptides were serially diluted 1 in 4 to give a dilution series of 250, 62.50, 15.63, 3.91, 0.98 and 0.24 µM and assayed by the agar well diffusion assay described by Ryan et al.[19]. Briefly, 50 µl aliquots of each peptide concentration were plated on a S. aureus DPC5246 indicator plate and the plate incubated at 37 °C. Peptide activity (Minimum Inhibitory Concentration (MIC)) was taken as the lowest concentration of peptide to give a zone of inhibition. All assays were performed in triplicate. The dilution series values were rounded to the nearest whole number to give 1000, 250, 63, 16, 4, 1 and 0.25 µM and data is colour coded for ease of interpretation.

| Molecule | Activity (Minimum Inhibitory Concentration, MIC) [µM] | fold reduction in activity compared with bactofencin A (wild type) [fold] |
| --- | --- | --- |
| CSCC[C@@H]1NC(=O)CNC(=O)[C@H]([C@@H](C)O)NC(=O)[C@@H]2CCCN2C(=O)[C@H](CCSC)NC(=O)CNC(=O)[C@H](CC(N)=O)NC(=O)[C@H](CC(N)=O)NC(=O)[C@H](Cc2ccc(O)cc2)NC(=O)[C@H](C(C)C)NC(=O)[C@@H](CCCNC(=N)N)NC(=O)[C@@H](NC(=O)[C@H](CCCNC(=N)N)NC(=O)[C@H](Cc2c[nH]cn2)NC(=O)[C@H](CCCCN)NC(=O)[C@H](CCCCN)NC(=O)[C@H](CCCNC(=N)N)NC(=O)[C@@H](N)CCCCN)CSSC[C@@H](C(=O)O)NC(=O)[C@H](Cc2c[nH]c3ccccc23)NC(=O)[C@H](CCCNC(=N)N)NC(=O)[C@H](Cc2ccc(O)cc2)NC1=O [R8Rd] (H-KRKKHRC[dR]VYNNGMPTGMYRWC-OH; disulfide 7-22; N-terminus assumed) | 63 | 63 |
| KRKKHRSRVYNNGMPTGMYRWS [C7S-C22S] | 63 |  |
| CSCC[C@@H]1NC(=O)CNC(=O)[C@H]([C@@H](C)O)NC(=O)[C@@H]2CCCN2C(=O)[C@H](CCSC)NC(=O)CNC(=O)[C@H](CC(N)=O)NC(=O)[C@H](CC(N)=O)NC(=O)[C@H](Cc2ccc(O)cc2)NC(=O)[C@H](C(C)C)NC(=O)[C@H](CCCNC(=N)N)NC(=O)[C@@H](NC(=O)[C@H](CCCNC(=N)N)NC(=O)[C@H](Cc2c[nH]cn2)NC(=O)[C@H](CCCCN)NC(=O)[C@H](CCCCN)NC(=O)[C@H](CCCNC(=N)N)NC(=O)[C@@H](N)CCCCN)CSSC[C@@H](C(=O)O)NC(=O)[C@H](C)NC(=O)[C@H](CCCNC(=N)N)NC(=O)[C@H](Cc2ccc(O)cc2)NC1=O [W21A] (H-KRKKHRCRVYNNGMPTGMYRAC-OH; disulfide 7-22) | 1 |  |
| CSCC[C@@H]1NC(=O)CNC(=O)[C@H]([C@@H](C)O)NC(=O)[C@@H]2CCCN2C(=O)[C@H](CCSC)NC(=O)CNC(=O)[C@H](CC(N)=O)NC(=O)[C@H](CC(N)=O)NC(=O)[C@H](C)NC(=O)[C@H](C(C)C)NC(=O)[C@H](CCCNC(=N)N)NC(=O)[C@@H](NC(=O)[C@H](CCCNC(=N)N)NC(=O)[C@H](Cc2c[nH]cn2)NC(=O)[C@H](CCCCN)NC(=O)[C@H](CCCCN)NC(=O)[C@H](CCCNC(=N)N)NC(=O)[C@@H](N)CCCCN)CSSC[C@@H](C(=O)O)NC(=O)[C@H](Cc2c[nH]c3ccccc23)NC(=O)[C@H](CCCNC(=N)N)NC(=O)[C@H](Cc2ccc(O)cc2)NC1=O [Y10A] (H-KRKKHRCRVANNGMPTGMYRWC-OH; disulfide 7-22) | 4 |  |
| CSCC[C@@H]1NC(=O)CNC(=O)[C@H](CC(N)=O)NC(=O)[C@H](CC(N)=O)NC(=O)[C@H](Cc2ccc(O)cc2)NC(=O)[C@H](C(C)C)NC(=O)[C@H](CCCNC(=N)N)NC(=O)[C@@H](NC(=O)[C@H](CCCNC(=N)N)NC(=O)[C@H](Cc2c[nH]cn2)NC(=O)[C@H](CCCCN)NC(=O)[C@H](CCCCN)NC(=O)[C@H](CCCNC(=N)N)NC(=O)[C@@H](N)CCCCN)CSSC[C@@H](C(=O)O)NC(=O)[C@H](Cc2c[nH]c3ccccc23)NC(=O)[C@H](CCCNC(=N)N)NC(=O)[C@H](Cc2ccc(O)cc2)NC(=O)[C@H](CCSC)NC(=O)CNC(=O)[C@H]([C@@H](C)O)NC(=O)[C@H](C)NC1=O [P15A] (H-KRKKHRCRVYNNGMATGMYRWC-OH; disulfide 7-22) | 1 |  |
| CSCC[C@@H]1NC(=O)CNC(=O)[C@H]([C@@H](C)O)NC(=O)[C@@H]2CCCN2C(=O)[C@H](CCSC)NC(=O)CNC(=O)[C@H](CC(N)=O)NC(=O)[C@H](C)NC(=O)[C@H](Cc2ccc(O)cc2)NC(=O)[C@H](C(C)C)NC(=O)[C@H](CCCNC(=N)N)NC(=O)[C@@H](NC(=O)[C@H](CCCNC(=N)N)NC(=O)[C@H](Cc2c[nH]cn2)NC(=O)[C@H](CCCCN)NC(=O)[C@H](CCCCN)NC(=O)[C@H](CCCNC(=N)N)NC(=O)[C@@H](N)CCCCN)CSSC[C@@H](C(=O)O)NC(=O)[C@H](Cc2c[nH]c3ccccc23)NC(=O)[C@H](CCCNC(=N)N)NC(=O)[C@H](Cc2ccc(O)cc2)NC1=O [N11A] (H-KRKKHRCRVYANGMPTGMYRWC-OH; disulfide 7-22) | 16 |  |
| CSCC[C@@H]1NC(=O)CNC(=O)[C@H]([C@@H](C)O)NC(=O)[C@@H]2CCCN2C(=O)[C@H](CCSC)NC(=O)CNC(=O)[C@H](CC(N)=O)NC(=O)[C@H](CC(N)=O)NC(=O)[C@H](Cc2ccc(O)cc2)NC(=O)[C@H](C(C)C)NC(=O)[C@H](CCCNC(=N)N)NC(=O)[C@@H](NC(=O)[C@H](CCCNC(=N)N)NC(=O)[C@H](C)NC(=O)[C@H](CCCCN)NC(=O)[C@H](CCCCN)NC(=O)[C@H](CCCNC(=N)N)NC(=O)[C@@H](N)CCCCN)CSSC[C@@H](C(=O)O)NC(=O)[C@H](Cc2c[nH]c3ccccc23)NC(=O)[C@H](CCCNC(=N)N)NC(=O)[C@H](Cc2ccc(O)cc2)NC1=O [H5A] (H-KRKKARCRVYNNGMPTGMYRWC-OH; disulfide 7-22) | 1 |  |
| CSCC[C@@H]1NC(=O)CNC(=O)[C@H](C)NC(=O)[C@@H]2CCCN2C(=O)[C@H](CCSC)NC(=O)CNC(=O)[C@H](CC(N)=O)NC(=O)[C@H](CC(N)=O)NC(=O)[C@H](Cc2ccc(O)cc2)NC(=O)[C@H](C(C)C)NC(=O)[C@H](CCCNC(=N)N)NC(=O)[C@@H](NC(=O)[C@H](CCCNC(=N)N)NC(=O)[C@H](Cc2c[nH]cn2)NC(=O)[C@H](CCCCN)NC(=O)[C@H](CCCCN)NC(=O)[C@H](CCCNC(=N)N)NC(=O)[C@@H](N)CCCCN)CSSC[C@@H](C(=O)O)NC(=O)[C@H](Cc2c[nH]c3ccccc23)NC(=O)[C@H](CCCNC(=N)N)NC(=O)[C@H](Cc2ccc(O)cc2)NC1=O [T16A] (H-KRKKHRCRVYNNGMPAGMYRWC-OH; disulfide 7-22) | 16 |  |
| CSCC[C@@H]1NC(=O)CNC(=O)[C@H]([C@@H](C)O)NC(=O)[C@@H]2CCCN2C(=O)[C@H](CCSC)NC(=O)CNC(=O)[C@H](CC(N)=O)NC(=O)[C@H](CC(N)=O)NC(=O)[C@H](Cc2ccc(O)cc2)NC(=O)[C@H](C(C)C)NC(=O)[C@H](CCCNC(=N)N)NC(=O)[C@@H](NC(=O)[C@H](CCCNC(=N)N)NC(=O)[C@H](Cc2c[nH]cn2)NC(=O)[C@H](CCCCN)NC(=O)[C@H](CCCCN)NC(=O)[C@H](CCCNC(=N)N)NC(=O)[C@@H](N)CCCCN)CSSC[C@H](C(=O)O)NC(=O)[C@H](Cc2c[nH]c3ccccc23)NC(=O)[C@H](CCCNC(=N)N)NC(=O)[C@H](Cc2ccc(O)cc2)NC1=O [C22Cd] (H-KRKKHRCRVYNNGMPTGMYRW[dC]-OH; disulfide 7-22; N-terminus assumed) | 4 |  |
| CSCC[C@@H]1NC(=O)CNC(=O)[C@H](CC(N)=O)NC(=O)[C@H](CC(N)=O)NC(=O)[C@H](Cc2ccc(O)cc2)NC(=O)[C@H](C(C)C)NC(=O)[C@H](CCCNC(=N)N)NC(=O)[C@@H](NC(=O)[C@H](CCCNC(=N)N)NC(=O)[C@H](Cc2c[nH]cn2)NC(=O)[C@H](CCCCN)NC(=O)[C@H](CCCCN)NC(=O)[C@H](CCCNC(=N)N)NC(=O)[C@@H](N)CCCCN)CSSC[C@@H](C(=O)O)NC(=O)[C@H](Cc2c[nH]c3ccccc23)NC(=O)[C@H](CCCNC(=N)N)NC(=O)[C@H](Cc2ccc(O)cc2)NC(=O)[C@@H](CCSC)NC(=O)CNC(=O)[C@H]([C@@H](C)O)NC(=O)[C@@H]2CCCN2C1=O [M18Md] (H-KRKKHRCRVYNNGMPTG[dM]YRWC-OH; disulfide 7-22; N-terminus assumed) | 16 |  |
| CSCC[C@@H]1NC(=O)CNC(=O)[C@H](CC(N)=O)NC(=O)[C@H](CC(N)=O)NC(=O)[C@H](Cc2ccc(O)cc2)NC(=O)[C@H](C(C)C)NC(=O)[C@H](CCCNC(=N)N)NC(=O)[C@@H](NC(=O)[C@H](CCCNC(=N)N)NC(=O)[C@H](Cc2c[nH]cn2)NC(=O)[C@H](CCCCN)NC(=O)[C@H](CCCCN)NC(=O)[C@H](CCCNC(=N)N)NC(=O)[C@@H](N)CCCCN)CSSC[C@@H](C(=O)O)NC(=O)[C@H](Cc2c[nH]c3ccccc23)NC(=O)[C@H](CCCNC(=N)N)NC(=O)[C@H](Cc2ccc(O)cc2)NC(=O)[C@H](C)NC(=O)CNC(=O)[C@H]([C@@H](C)O)NC(=O)[C@@H]2CCCN2C1=O [M18A] (H-KRKKHRCRVYNNGMPTGAYRWC-OH; disulfide 7-22) | 1 |  |
| CSCC[C@@H]1NC(=O)CNC(=O)[C@H]([C@@H](C)O)NC(=O)[C@@H]2CCCN2C(=O)[C@H](CCSC)NC(=O)CNC(=O)[C@H](CC(N)=O)NC(=O)[C@H](CC(N)=O)NC(=O)[C@H](Cc2ccc(O)cc2)NC(=O)[C@@H](C(C)C)NC(=O)[C@H](CCCNC(=N)N)NC(=O)[C@@H](NC(=O)[C@H](CCCNC(=N)N)NC(=O)[C@H](Cc2c[nH]cn2)NC(=O)[C@H](CCCCN)NC(=O)[C@H](CCCCN)NC(=O)[C@H](CCCNC(=N)N)NC(=O)[C@@H](N)CCCCN)CSSC[C@@H](C(=O)O)NC(=O)[C@H](Cc2c[nH]c3ccccc23)NC(=O)[C@H](CCCNC(=N)N)NC(=O)[C@H](Cc2ccc(O)cc2)NC1=O [V9Vd] (H-KRKKHRCR[dV]YNNGMPTGMYRWC-OH; disulfide 7-22; N-terminus assumed) | 63 | 63 |
| CSCC[C@@H]1NC(=O)CNC(=O)[C@H]([C@@H](C)O)NC(=O)[C@@H]2CCCN2C(=O)[C@H](CCSC)NC(=O)CNC(=O)[C@H](CC(N)=O)NC(=O)[C@H](CC(N)=O)NC(=O)[C@@H](Cc2ccc(O)cc2)NC(=O)[C@H](C(C)C)NC(=O)[C@H](CCCNC(=N)N)NC(=O)[C@@H](NC(=O)[C@H](CCCNC(=N)N)NC(=O)[C@H](Cc2c[nH]cn2)NC(=O)[C@H](CCCCN)NC(=O)[C@H](CCCCN)NC(=O)[C@H](CCCNC(=N)N)NC(=O)[C@@H](N)CCCCN)CSSC[C@@H](C(=O)O)NC(=O)[C@H](Cc2c[nH]c3ccccc23)NC(=O)[C@H](CCCNC(=N)N)NC(=O)[C@H](Cc2ccc(O)cc2)NC1=O [Y10Yd] (H-KRKKHRCRV[dY]NNGMPTGMYRWC-OH; disulfide 7-22; N-terminus assumed) | > 1000 |  |
